Source: patent US6703380B2, “Prevention of cancer” (Colotech A/S, priority 1999, dated 2004)
Values joined by “and” are separate entries in the source; they are usually repeats but may differ in a detail not shown here. Equal entries are not always repeated.

Columns and labels:
[1] = system: stroke, acute myocardial infarction and/or cardiovascular death; conditions: low-dose; cited from earlier work
[2] = system: aberrant crypt foci (ACF) of the colon/rectum in AOM-induced rats; experiment: ACF of the colon/rectum in AOM-induced rats, Example 2; assay type: in vivo, rat
Procedure: The in vivo study of the effect on prevention of CRC in AOM (Azoxymethane) induced rats The rats are induced s.c 1× week in 2 weeks with an AOM solution. The effect of the specific treatment is evaluated due to the number of aberrant crypt foci (ACF) of the colon/rectum in the AOM-induced rats. The aberrant crypt score is evaluated by stereomicroscopy (40×) upon staining with Giemsa-solution (6 ml conc. Giemsa in 50 ml of PBS, pH 7.1). The crypt size is categorised as small, medium, large and X-large. The number of animals is 80 with 16 in each group. The medicaments are administered with the food. The section is 18 weeks from the first dosage. […] Data for weight, food and water are registered and analysed “Small” in the third column is the sum of small and medium of the first column “Large” in the third column is the sum of large and x-large the of second column

[3] = system: human colon cancer cell lines (LoVo); conditions: in vitro, including CEA-producing cell lines; cited from earlier work
solid, human xenografts = conditions: in vivo (mice); cited from earlier work
[4] = following 3 months of therapy; cited from earlier work
[5] = count per animal, listed as Asp 200

In the case of `CC(=O)Oc1ccccc1C(=O)O` [ASA, acetylsalicylic acid], the “Relative risk-reduction in relation to stroke, acute myocardial infarction and/or cardiovascular death” value [1] is listed as “approx. 25%”, the “Effect on (large) ACF, in words” value ([2]; aspirin 200 ppm without or with Ca and 1,25 DHC) is listed as “without effect” and the “Small ACF, individual rat” value ([2]; count per animal, section 18 weeks from first dosage, listed as Asp 200) is listed as 92 and 87 and 20 and 51 and 31 and 82 and 73 (2×) and 44 (2×) and 55 and 47 and 40 and 22 and 46 and 63. For the same compound, the “Large (sum of large and x-large) ACF, individual rat” value [2, 5] was 15 and 9 and 2 (3×) and 8 and 5 (2×) and 3 (3×) and 6 and 1 (2×) and 7 and 4, the “Large ACF, individual rat” value [2, 5] was 13 and 8 and 2 (3×) and 5 (4×) and 3 (3×) and 1 (2×) and 6 and 4 and the “Medium ACF, individual rat” value [2, 5] was 74 and 45 and 8 and 34 and 10 and 51 and 35 and 31 and 22 and 49 and 21 and 9 and 26 and 47 and 18 and 50. The “Small (sum of small and medium) ACF, individual rat” value [2, 5] was 166 and 132 and 28 and 85 and 41 and 133 and 108 and 75 and 77 and 96 and 61 and 31 and 72 and 120 and 62 and 113, the “Total ACF, individual rat” value [2, 5] was 181 and 141 and 30 and 93 and 43 and 138 and 111 and 78 and 80 and 102 and 62 and 33 and 79 and 125 and 66 and 114 and the “X-Large ACF, individual rat” value [2, 5] was 2 and 1 (3×) and 0 (11×) and 3. The “Large (sum of large and x-large) ACF, Mean” value ([2]; group mean) was 4.75, the “Large ACF, Mean” value ([2]; group mean) was 4.25 and the “Medium ACF, Mean” value ([2]; group mean) was 33.13. For the same compound, the “Small (sum of small and medium) ACF, Mean” value ([2]; group mean) was 87.50, the “Small ACF, Mean” value ([2]; group mean) was 54.38 and the “Total ACF, Mean” value ([2]; group mean) was 92.25. The “X-Large ACF, Mean” value ([2]; group mean) was 0.50.

For `C=C1/C(=C\C=C2/CCC[C@]3(C)[C@@H]([C@H](C)CCCC(C)(C)O)CC[C@@H]23)C[C@@H](O)C[C@@H]1O` [1,25DHC, 1,25 dihydroxycholecalciferol], the “Growth of human colon cancer cell lines” value [3] is given as “inhibits the growth” and the “Growth of solid, human xenografts” value (solid, human xenografts) is given as “suppress growth”.

For `O=C(O)c1cc(/N=N/c2ccc(S(=O)(=O)Nc3ccccn3)cc2)ccc1O` [sulphasalazine], the Relative risk reduction [4] is listed as 0.38 (0.2 to 0.7).
